# How the values were obtained:
# [1] = target: T1, fructose-1,6-bisphosphatase (FBP) (Rattus norvegicus, UniProt P19112); assay: FBP inhibition, spectrophotometric assay; assay type: biochemical; conditions: inhibition of purified rat liver FBP; 0.02 mM fructose-1,6-bisphosphate, pH 7.4, 30° C.
# T1 construct: purified rat liver FBP; from tissue; host or cells: rat liver
# T1 sequence (P19112 2-363 limits assumed): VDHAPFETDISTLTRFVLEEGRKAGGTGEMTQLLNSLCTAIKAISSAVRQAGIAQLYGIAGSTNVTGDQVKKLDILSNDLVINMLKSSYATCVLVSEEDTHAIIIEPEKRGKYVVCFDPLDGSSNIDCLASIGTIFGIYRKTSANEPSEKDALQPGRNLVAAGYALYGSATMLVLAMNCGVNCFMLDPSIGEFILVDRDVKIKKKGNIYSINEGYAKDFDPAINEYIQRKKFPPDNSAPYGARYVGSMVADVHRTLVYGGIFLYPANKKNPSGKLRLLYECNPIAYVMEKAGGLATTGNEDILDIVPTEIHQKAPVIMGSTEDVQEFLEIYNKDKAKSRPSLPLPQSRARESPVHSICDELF
# Description: (§1) The novel compounds of this invention were tested for their ability to stimulate the enzyme 6-phosphofructo-1-kinase ("PFK") and for their ability to inhibit the enzyme fructose-1,6-bisphosphatase ("FBP") using the procedures described below.
# Effects on the activity of FBP were determined using a spectrophotometric assay. The assay mixture contained 100 mM tris(hydroxymethyl)aminomethane,hydrochloride ("TRIS-HCl", pH 7.4); 2.5 mM betamercaptoethanol; 2 mM magnesium chloride; 0.05 mM EDTA; 0.2 mM nicotinamide adenine dinucleotide phosphate ("NADP"); 10 U phosphoglucose isomerase; 5 U glucose-6-phosphatedehydrogenase; 0.02 U of purified rat liver FBP; and various concentrations of the test compound, all in a final volume of 1 ml. The mixture was preincubated for 3 minutes at 30° C. and then the reaction was initiated with 0.02 mM fructose-1,6-bisphosphate. The rate of increase in absorbance at 340 nm was measured at 30° C. with a recording spectrophotometer.
# [2] = target: T2, 6-phosphofructo-1-kinase (PFK) (Rattus norvegicus, UniProt P30835); assay: PFK stimulation, aldolase-coupled spectrophotometric assay; assay type: biochemical; conditions: stimulation of purified rat liver 6-phosphofructo-1-kinase; 0.2 mM fructose-6-phosphate, pH 7.3, 30° C.; read-out: PFK ED50
# T2 construct: purified rat liver 6-phosphofructo-1-kinase; from tissue; host or cells: rat liver
# T2 sequence (P30835 2-780 limits assumed): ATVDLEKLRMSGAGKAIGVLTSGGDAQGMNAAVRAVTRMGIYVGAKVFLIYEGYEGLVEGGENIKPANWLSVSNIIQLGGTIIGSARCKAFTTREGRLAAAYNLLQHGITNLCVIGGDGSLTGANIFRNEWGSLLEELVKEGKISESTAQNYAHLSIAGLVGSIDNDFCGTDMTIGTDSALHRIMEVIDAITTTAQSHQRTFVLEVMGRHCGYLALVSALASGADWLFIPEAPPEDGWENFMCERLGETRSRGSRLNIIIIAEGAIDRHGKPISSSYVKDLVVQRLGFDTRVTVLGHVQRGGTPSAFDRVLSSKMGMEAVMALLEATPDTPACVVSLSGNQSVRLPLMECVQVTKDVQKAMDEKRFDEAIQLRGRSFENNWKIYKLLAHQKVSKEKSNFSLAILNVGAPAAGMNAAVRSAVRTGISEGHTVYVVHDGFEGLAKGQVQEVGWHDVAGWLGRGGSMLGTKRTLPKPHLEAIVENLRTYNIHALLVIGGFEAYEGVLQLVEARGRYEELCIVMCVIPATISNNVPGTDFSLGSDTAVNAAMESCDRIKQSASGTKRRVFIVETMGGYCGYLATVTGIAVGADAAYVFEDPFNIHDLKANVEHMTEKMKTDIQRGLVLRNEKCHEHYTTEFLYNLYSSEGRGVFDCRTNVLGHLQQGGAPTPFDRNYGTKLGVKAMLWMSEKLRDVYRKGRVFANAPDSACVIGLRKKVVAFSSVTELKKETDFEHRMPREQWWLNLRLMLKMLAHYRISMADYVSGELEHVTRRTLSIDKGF
# Description: as §1
# Effects on the activity of PFK were determined using an aldolase-coupled, spectrophotometric assay. The assay mixture contained: […] N-tris-(hydroxymethyl)-methyl-2-aminoethanesulfonic acid, hydrochloride ("TES-HCl", pH 7.3); 1 mM ethylenediaminetetraacetic acid ("EDTA"); 6 mM magnesium chloride; 2.5 mM dithiothreitol; 0.165 mM nicotinamide adenine dinucleotide ("NADH"); 1 mM adenosine triphosphate ("ATP"); 0.04 U aldolase; 0.4 U triose phosphate isomerase; alpha-glycerolphosphate dehydrogenase (1.5 U/ml); 0.1 U of purified rat liver 6-phosphofructo-1-kinase; and various concentrations of the test compound, all in a final volume of 1 ml. The mixture was preincubated for 3 minutes at 30° C. and then the reaction was initiated with 0.2 mM fructose-6-phosphate. The rate of decrease in absorbance at 340 nm was measured at 30° C. with a recording spectrophotometer.
IC50 [1] [µM],EC50 [2] [µM],Compound
602,20,"O=P(O)(O)C[C@@H]1O[C@H](COP(=O)(O)O)[C@@H](O)[C@@H]1O [2,5-Anhydro-1-deoxy-1-phosphono-D-glucitol, 6-(dihydrogen phosphate)]"
58,4,"O=P(O)(O)C[C@H]1O[C@H](COP(=O)(O)O)[C@@H](O)[C@@H]1O [2,5-Anhydro-1-deoxy-1-phosphono-D-mannitol, 6-(dihydrogen phosphate)]"
240,12,"O=P(O)(O)C[C@]1(CO)O[C@H](COP(=O)(O)O)[C@@H](O)[C@@H]1O [2,5-Anhydro-1-deoxy-2-C-(hydroxymethyl)-1-phosphono-D-glucitol, 6-(dihydrogen phosphate)]"
393,6,"O=P(O)(O)C[C@@]1(CO)O[C@H](COP(=O)(O)O)[C@@H](O)[C@@H]1O [2,5-Anhydro-1-deoxy-2-C-(hydroxymethyl)-1-phosphono-D-mannitol, 6-(dihydrogen phosphate)]"
80,6,"O=P(O)(O)CC[C@H]1O[C@H](COP(=O)(O)O)[C@@H](O)[C@@H]1O [3,6-Anhydro-1,2-dideoxy-1-phosphono-D-manno-heptitol, 7-(dihydrogen phosphate)]"
–,12,"O=P(O)(O)CCC[C@@H]1O[C@H](COP(=O)(O)O)[C@@H](O)[C@@H]1O [4,7-Anhydro-1,2,3-trideoxy-1-(dihydroxyphosphinyl)-D-gluco-octitol, 8-(dihydrogen phosphate)]"
200,27,"O=P(O)(O)CCC[C@H]1O[C@H](COP(=O)(O)O)[C@@H](O)[C@@H]1O [4,7-anhydro-1,2,3-trideoxy-1-(dihydroxyphosphinyl)-D-manno-octitol, 8-(dihydrogen phosphate)]"

# Reference: patent US4945158A, “Antidiabetic phosphonates” (American Cyanamid Company, priority 1988, dated 1990)
